pEC50: −log10 of the molar value.
Biological target: T1, human mAChR M4 (Homo sapiens, UniProt P08173)
T1 construct: expressed in transfected cells; host or cells: CHO-K1 (American Type Culture Collection), stably expressing hM4 and Gqi5
T1 sequence (P08173 1-479): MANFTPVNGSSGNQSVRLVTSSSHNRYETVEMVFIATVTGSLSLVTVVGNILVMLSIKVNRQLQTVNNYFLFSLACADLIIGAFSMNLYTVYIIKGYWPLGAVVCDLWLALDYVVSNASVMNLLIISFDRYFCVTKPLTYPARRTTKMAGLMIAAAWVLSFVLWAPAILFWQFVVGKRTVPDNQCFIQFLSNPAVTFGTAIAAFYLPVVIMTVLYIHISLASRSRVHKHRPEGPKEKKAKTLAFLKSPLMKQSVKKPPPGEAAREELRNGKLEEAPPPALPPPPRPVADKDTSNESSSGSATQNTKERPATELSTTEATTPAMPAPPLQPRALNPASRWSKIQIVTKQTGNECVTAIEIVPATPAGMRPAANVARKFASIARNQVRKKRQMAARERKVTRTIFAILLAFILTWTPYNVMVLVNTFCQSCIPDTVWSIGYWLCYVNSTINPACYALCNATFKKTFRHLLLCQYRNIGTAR
Test: mAChR M4 cell-based functional assay: calcium mobilization (Fluo-4, FDSS), potentiation of EC20 acetylcholine response in hM4-Gqi5 CHO-K1 cells
Details: human M4; for Emax at 30 µM: CHO-K1, % ACh maximum at 30 μM; for pEC50: potentiation of EC20 acetylcholine response, calcium mobilization
Summary of the method: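 CHO-K1 cells stably co-expressing human M4 and chimeric Gqi5, loaded with Fluo-4 AM (50 min, 37 °C). Compounds in 11-point 1:3 series added first; EC20 acetylcholine added at 144 s and again at 230 s. Calcium read on FDSS at 1 Hz; EC50 and Emax from four-parameter logistic fit of potentiated EC20 response.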

Row | Compound | Emax at 30 µM [%] | pEC50
1 | Cc1c(N2CCc3ncc(-c4cncc(C#N)c4)cc3C2)nn2c(=O)ccnc2c1C [Compound 1-223, 5-(6-(8,9-dimethyl-4-oxo-4H-pyrimido[1,2-b]pyridazin-7-yl)-5,6,7,8-tetrahydro-1,6-naphthyridin-3-yl)nicotinonitrile] | 64 | 6.21
2 | Cc1c(N2CCc3ncc(-c4ccc(F)nc4)cc3C2)nn2c(=O)ccnc2c1C [Compound 1-87, 7-(3-(6-Fluoropyridin-3-yl)-7,8-dihydro-1,6-naphthyridin-6(5H)-yl)-8,9-dimethyl-4H-pyrimido[1,2-b]pyridazin-4-one] | 82 | 6.89
3 | Cc1c(N2CCc3ncc(-c4cncc(Cl)c4)cc3C2)nn2c(=O)ccnc2c1C [Compound 1-144, 7-(3-(5-chloropyridin-3-yl)-7,8-dihydro-1,6-naphthyridin-6(5H)-yl)-8,9-dimethyl-4H-pyrimido[1,2-b]pyridazin-4-one] | 82 | 6.61
4 | Cc1cc2nccc(=O)n2nc1N1CCc2ncc(-c3cnc(C)n3C)cc2C1 [Compound 1-323, 7-(3-(1,2-dimethyl-1H-imidazol-5-yl)-7,8-dihydro-1,6-naphthyridin-6(5H)-yl)-8-methyl-4H-pyrimido[1,2-b]pyridazin-4-one] | 71 | 5.98
5 | Cc1cc(=O)n2nc(N3CCc4ncc(-c5ccco5)cc4C3)c(C)cc2n1 [Compound 1-301, 7-(3-(furan-2-yl)-7,8-dihydro-1,6-naphthyridin-6(5H)-yl)-2,8-dimethyl-4H-pyrimido[1,2-b]pyridazin-4-one] | 91 | 6.95
6 | Cc1cc(=O)n2nc(N3CCc4ncc(-c5cn6ccnc6cc5C)cc4C3)c(C)cc2n1 [Compound 1-217, 2,8-dimethyl-7-(3-(7-methylimidazo[1,2-a]pyridin-6-yl)-7,8-dihydro-1,6-naphthyridin-6(5H)-yl)-4H-pyrimido[1,2-b]pyridazin-4-one] | 60 | 6.18
7 | Cc1c(N2CCc3ncc(-c4cnn(C5COC5)c4)cc3C2)nn2c(=O)cc(C(F)F)nc2c1C [Compound 1-309, 2-(difluoromethyl)-8,9-dimethyl-7-(3-(1-(oxetan-3-yl)-1H-pyrazol-4-yl)-7,8-dihydro-1,6-naphthyridin-6(5H)-yl)-4H-pyrimido[1,2-b]pyridazin-4-one] | 88 | 6.69
8 | Cc1ncc(-c2cnc3c(c2)CN(c2nn4c(=O)c(Cl)cnc4cc2C)CC3)s1 [Compound 1-13, 3-chloro-8-methyl-7-(3-(2-methylthiazol-5-yl)-7,8-dihydro-1,6-naphthyridin-6(5H)-yl)-4H-pyrimido[1,2-b]pyridazin-4-one] | 79 | 6.43
9 | Cc1ccc(-c2cnc3c(c2)CN(c2nn4c(=O)c(Cl)cnc4cc2C)CC3)cn1 [Compound 1-14, 3-chloro-8-methyl-7-(3-(6-methylpyridin-3-yl)-7,8-dihydro-1,6-naphthyridin-6(5H)-yl)-4H-pyrimido[1,2-b]pyridazin-4-one] | 77 | 7.16
10 | COCc1cc(=O)n2nc(N3CCc4ncc(-c5cc(F)ccc5F)cc4C3)c(C)cc2n1 [Compound 1-336, 7-(3-(2,5-difluorophenyl)-7,8-dihydro-1,6-naphthyridin-6(5H)-yl)-2-(methoxymethyl)-8-methyl-4H-pyrimido[1,2-b] pyridazin-4-one] | 66 | 6.45
11 | Cc1c(N2CCc3ncc(-c4ccc(C(F)(F)F)nc4)cc3C2)nn2c(=O)cc(C(F)F)nc2c1C [Compound 1-93, 2-(difluoromethyl)-8,9-dimethyl-7-(3-(6-(trifluoromethyl)pyridin-3-yl)-7,8-dihydro-1,6-naphthyridin-6(5H)-yl)-4H-pyrimido[1,2-b]pyridazin-4-one] | 90 | 6.48
12 | Cc1ccc(-c2cnc3c(c2)CN(c2nn4c(=O)ccnc4c(C)c2C2CC2)CC3)cn1 [Compound 1-112, 8-cyclopropyl-9-methyl-7-(3-(6-methylpyridin-3-yl)-7,8-dihydro-1,6-naphthyridin-6(5H)-yl)-4H-pyrimido[1,2-b]pyridazin-4-one] | 67 | 6.18
13 | Cc1ccc(-c2cnc3c(c2)CN(c2nn4c(=O)cc(C)nc4cc2C)CC3)c(C)c1 [Compound 1-292, 7-(3-(2,4-dimethylphenyl)-7,8-dihydro-1,6-naphthyridin-6(5H)-yl)-2,8-dimethyl-4H-pyrimido[1,2-b]pyridazin-4-one] | 92 | 6.32
14 | Cc1cc(=O)n2nc(N3CCc4ncc(-c5ccc6nccn6c5)cc4C3)c(C)c(C)c2n1 [Compound 1-133, 7-(3-(imidazo[1,2-a]pyridin-6-yl)-7,8-dihydro-1,6-naphthyridin-6(5H)-yl)-2,8,9-trimethyl-4H-pyrimido[1,2-b]pyridazin-4-one] | 79 | 6.25

The next lines start with the values.

Row | Emax at 30 µM [%] | pEC50 | Compound
15 | 99 | 6.51 | Cc1cc(=O)n2nc(N3CCc4ncc(N5CCSCC5)cc4C3)c(C)c(C)c2n1 [Compound 2-46, 2,8,9-trimethyl-7-(3-thiomorpholino-7,8-dihydro-1,6-naphthyridin-6(5H)-yl)-4H-pyrimido[1,2-b]pyridazin-4-one]
16 | 78 | 6.47 | COCc1cc(=O)n2nc(N3CCc4ncc(-c5ccncc5)cc4C3)c(C)cc2n1 [Compound 1-362, 2-(methoxymethyl)-8-methyl-7-(3-(pyridin-4-yl)-7,8-dihydro-1,6-naphthyridin-6(5H)-yl)-4H-pyrimido[1,2-b] pyridazin-4-one]
17 | 83 | 5.98 | Cc1cc2nccc(=O)n2nc1N1CCc2ncc(-c3ncsc3C)cc2C1 [Compound 1-393, 8-methyl-7-(3-(5-methylthiazol-4-yl)-7,8-dihydro-1,6-naphthyridin-6(5H)-yl)-4H-pyrimido[1,2-b]pyridazin-4-one]
18 | 96 | 7.34 | Cc1cc2n(n1)CCCN2c1cnc2c(c1)CN(c1nn3c(=O)ccnc3c(C)c1C)CC2 [Compound 2-35, 8,9-dimethyl-7-(3-(2-methyl-6,7-dihydropyrazolo[1,5-a]pyrimidin-4(5H)-yl)-7,8-dihydro-1,6-naphthyridin-6(5H)-yl)-4H-pyrimido[1,2-b]pyridazin-4-one]
19 | 75 | 5.93 | Cc1cc2nccc(=O)n2nc1N1CCc2ncc(N3CCOC(c4ccncc4)C3)cc2C1 (stereo not drawn) [Compound 2-93, 8-methyl-7-(3-(2-(pyridin-4-yl)morpholino)-7,8-dihydro-1,6-naphthyridin-6(5H)-yl)-4H-pyrimido[1,2-b]pyridazin-4-one]
20 | 80 | 6.45 | Cc1cc2nccc(=O)n2nc1N1CCc2ncc(-c3sc(C(=O)NC4CC4)cc3C)cc2C1 [Compound 1-428, N-cyclopropyl-4-methyl-5-(6-(8-methyl-4-oxo-4H-pyrimido[1,2-b]pyridazin-7-yl)-5,6,7,8-tetrahydro-1,6-naphthyridin-3-yl)thiophene-2-carboxamide]
21 | 75 | 6.56 | Cc1cc(C(F)F)ncc1-c1cnc2c(c1)CN(c1nn3c(=O)ccnc3cc1C)CC2 [Compound 1-375, 7-(3-(6-(difluoromethyl)-4-methylpyridin-3-yl)-7,8-dihydro-1,6-naphthyridin-6(5H)-yl)-8-methyl-4H-pyrimido [1,2-b]pyridazin-4-one]
22 | 87 | 7.55 | Cc1ccc2c(c1)N(c1cnc3c(c1)CN(c1nn4c(=O)ccnc4cc1C)CC3)CCO2 [Compound 2-53, 8-methyl-7-(3-(6-methyl-2,3-dihydro-4H-benzo[b][1,4]oxazin-4-yl)-7,8-dihydro-1,6-naphthyridin-6(5H)-yl)-4H-pyrimido[1,2-b]pyridazin-4-one]
23 | 66 |  | Cc1cc2nccc(=O)n2nc1N1CCc2ncc(NC(=O)C3(C)CCC3)cc2C1 [Compound 2-121, 1-methyl-N-(6-(8-methyl-4-oxo-4H-pyrimido[1,2-b]pyridazin-7-yl)-5,6,7,8-tetrahydro-1,6-naphthyridin-3-yl)cyclobutane-1-carboxamide]
24 | 90 | 7.54 | Cc1c(N2CCc3ncc(N4CCOC(C)(C)C4)cc3C2)nn2c(=O)cc(C(F)F)nc2c1C [Compound 2-40, 2-(difluoromethyl)-7-(3-(2,2-dimethylmorpholino)-7,8-dihydro-1,6-naphthyridin-6(5H)-yl)-8,9-dimethyl-4H-pyrimido[1,2-b]pyridazin-4-one]
25 | 66 | 6.90 | [2H]C1([2H])Cc2ncc(Nc3ccncc3C)cc2C([2H])([2H])N1c1nn2c(=O)ccnc2cc1C [Compound 2-165, 8-methyl-7-(3-((3-methylpyridin-4-yl)amino)-7,8-dihydro-1,6-naphthyridin-6(5H)-yl-5,5,7,7-d4)-4H-pyrimido[1,2-b]pyridazin-4-one]
26 | 80 | 6.66 | Cc1c(N2CCc3ncc(-c4ccc(F)cc4F)cc3C2)nn2c(=O)ccnc2c1C [Compound 1-347, 7-(3-(2,4-difluorophenyl)-7,8-dihydro-1,6-naphthyridin-6(5H)-yl)-8,9-dimethyl-4H-pyrimido[1,2-b]pyridazin-4-one]

Source: US20250101041A1, “POSITIVE ALLOSTERIC MODULATORS OF THE MUSCARINIC ACETYLCHOLINE RECEPTOR M4” (Vanderbilt University, priority 2022, published 2025)
